Reference: article PMC10485003, “Antibiotic hyper-resistance in a class I aminoacyl-tRNA synthetase with altered active site signature motif” (Nature Communications, 2023)
Values joined by “and” are separate entries in the source; they are usually repeats but may differ in a detail not shown here. Identical values can stand only once.

Biological target: T1, mut-GVHH PmIleRS2 (Priestia megaterium, UniProt A0A0B6AVD3, G56H/H54G)
T1 sequence (A0A0B6AVD3 1-1032 H54G/G56H): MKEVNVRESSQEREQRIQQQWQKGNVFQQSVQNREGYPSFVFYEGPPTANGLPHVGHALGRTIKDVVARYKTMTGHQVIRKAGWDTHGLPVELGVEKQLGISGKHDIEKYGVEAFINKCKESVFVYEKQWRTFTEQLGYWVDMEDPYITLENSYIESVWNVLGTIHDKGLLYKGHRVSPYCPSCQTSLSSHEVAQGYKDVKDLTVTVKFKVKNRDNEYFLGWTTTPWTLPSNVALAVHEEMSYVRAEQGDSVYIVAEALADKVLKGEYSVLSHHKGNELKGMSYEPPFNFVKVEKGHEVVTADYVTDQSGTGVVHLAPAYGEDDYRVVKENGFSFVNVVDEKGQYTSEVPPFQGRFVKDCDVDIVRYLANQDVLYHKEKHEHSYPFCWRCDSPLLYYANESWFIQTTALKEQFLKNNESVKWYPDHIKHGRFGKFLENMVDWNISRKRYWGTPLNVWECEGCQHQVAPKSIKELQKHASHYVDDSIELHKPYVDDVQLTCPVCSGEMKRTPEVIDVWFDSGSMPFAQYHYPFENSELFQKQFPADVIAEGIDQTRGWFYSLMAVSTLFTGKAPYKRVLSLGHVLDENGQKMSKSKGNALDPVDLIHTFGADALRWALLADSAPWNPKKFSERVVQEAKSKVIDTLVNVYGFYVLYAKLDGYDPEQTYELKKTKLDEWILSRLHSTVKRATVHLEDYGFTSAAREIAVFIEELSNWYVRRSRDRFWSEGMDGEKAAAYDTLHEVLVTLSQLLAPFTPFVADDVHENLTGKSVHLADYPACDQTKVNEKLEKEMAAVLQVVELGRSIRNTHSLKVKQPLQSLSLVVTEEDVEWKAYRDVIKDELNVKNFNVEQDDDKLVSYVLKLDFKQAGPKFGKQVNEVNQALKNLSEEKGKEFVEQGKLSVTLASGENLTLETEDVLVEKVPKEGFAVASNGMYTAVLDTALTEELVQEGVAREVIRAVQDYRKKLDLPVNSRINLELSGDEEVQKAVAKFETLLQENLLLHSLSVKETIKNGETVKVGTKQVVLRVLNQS
Assay: ATP-PPi exchange assay, mupirocin inhibition of amino acid activation
Format: biochemical, Priestia (Bacillus) megaterium
Description: L-Ile and ATP concentrations ranged from 1/10 KM to 10 KM values. When measuring the KI towards one of the substrates, the other was held in saturation (concentrations at least 10 KM). The aliquots of the reaction mixture (1–2.5 μl) were quenched in 2 volumes of 500 mM NaOAc pH = 4.5, 0.1% SDS, and formed ^32P-ATP was separated from the remaining ^32P-PPi by thin-layer chromatography on Polygram CEL 300 PEI UV254 TLC plates (Macherey-Nagel, cat: 801063) using 750 mM KH2PO4 pH=3.5, 4 M urea buffer. Visualization and quantification of the signals was performed using a Typhoon Phosphoimager 5 (General Electric) and accompanying ImageQuant™ TL software (SV: 10.2). The kinetic constants were determined using a global fit option of the competitive inhibition model of GraphPad Prism 6 software (SV: 6.01). All experiments were performed in triplicates. The kcat was determined by dividing the maximal velocity, VM, with the used enzyme concentration. […]
variable substrate (ATP or Ile) was varied in the range of 0.1 KM to 10 KM. The other substrate (Ile or ATP) was kept in excess at 5 to 10 KM. Data were globally fitted to the competitive inhibition model using GraphPad prism 6.01 for Windows software. The values represent the average value ± SD of three independent experiments. Source data are provided as a Source Data file.

C/C(=C\C(=O)OCCCCCCCCC(=O)O)C[C@@H]1OC[C@H](C[C@@H]2O[C@H]2[C@@H](C)[C@H](C)O)[C@@H](O)[C@H]1O [mupirocin] showed a vo (c (mupirocin) = 5.0 mM, c (Ile) 250.0 μM, Replica 3) of 0.00839 mM/min, a vo (c (mupirocin) = 5.0 mM, c (Ile) 500.0 μM, Replica 1) of 0.01582 mM/min and a vo (c (mupirocin) = 5.0 mM, c (Ile) 500.0 μM, Replica 2) of 0.01771 mM/min. For the same molecule, the vo (c (mupirocin) = 5.0 mM, c (Ile) 500.0 μM, Replica 3) was 0.01671 mM/min, the vo (c (mupirocin) = 5.0 mM, c (Ile) 1000.0 μM, Replica 1) was 0.02937 mM/min and the vo (c (mupirocin) = 5.0 mM, c (Ile) 1000.0 μM, Replica 2) was 0.03008 mM/min. It also gave a vo (c (mupirocin) = 5.0 mM, c (Ile) 1000.0 μM, Replica 3) of 0.02918 mM/min, a vo (c (mupirocin) = 5.0 mM, c (Ile) 1500.0 μM, Replica 1) of 0.03962 mM/min and a vo (c (mupirocin) = 5.0 mM, c (Ile) 1500.0 μM, Replica 2) of 0.03913 mM/min. For the same molecule, the vo (c (mupirocin) = 5.0 mM, c (Ile) 1500.0 μM, Replica 3) was 0.04025 mM/min, the vo (c (mupirocin) = 10.0 mM, c (Ile) 100.0 μM, Replica 1) was 0.00192 mM/min and the vo (c (mupirocin) = 10.0 mM, c (Ile) 100.0 μM, Replica 2) was 0.00188 mM/min. For the same molecule, the vo (c (mupirocin) = 10.0 mM, c (Ile) 100.0 μM, Replica 3) was 0.00205 mM/min, the vo (c (mupirocin) = 10.0 mM, c (Ile) 250.0 μM, Replica 1) was 0.00384 mM/min and the vo (c (mupirocin) = 10.0 mM, c (Ile) 250.0 μM, Replica 2) was 0.00477 mM/min. For the same molecule, the vo (c (mupirocin) = 10.0 mM, c (Ile) 250.0 μM, Replica 3) was 0.00429 mM/min, the vo (c (mupirocin) = 10.0 mM, c (Ile) 500.0 μM, Replica 1) was 0.00975 mM/min and the vo (c (mupirocin) = 10.0 mM, c (Ile) 500.0 μM, Replica 2) was 0.01055 mM/min. For the same molecule, the vo (c (mupirocin) = 10.0 mM, c (Ile) 500.0 μM, Replica 3) was 0.01023 mM/min, the vo (c (mupirocin) = 10.0 mM, c (Ile) 1000.0 μM, Replica 1) was 0.01549 mM/min and the vo (c (mupirocin) = 10.0 mM, c (Ile) 1000.0 μM, Replica 2) was 0.01681 mM/min. It also gave a vo (c (mupirocin) = 10.0 mM, c (Ile) 1000.0 μM, Replica 3) of 0.01726 mM/min, a vo (c (mupirocin) = 10.0 mM, c (Ile) 1500.0 μM, Replica 1) of 0.02248 mM/min and a vo (c (mupirocin) = 10.0 mM, c (Ile) 1500.0 μM, Replica 2) of 0.02398 mM/min. For the same molecule, the vo (c (mupirocin) = 10.0 mM, c (Ile) 1500.0 μM, Replica 3) was 0.02428 mM/min, the initial velocity vo (c(mupirocin) 0.5 mM, c(ATP) 0.5 mM) was 0.00635 mM/min and 0.00811 mM/min and the initial velocity vo (c(mupirocin) 0.5 mM, c(ATP) 1.0 mM) was 0.01441 mM/min and 0.01486 mM/min and 0.01387 mM/min. The initial velocity vo (c(mupirocin) 0.5 mM, c(ATP) 2.5 mM) was 0.03283 mM/min and 0.03264 mM/min and 0.03523 mM/min, the initial velocity vo (c(mupirocin) 0.5 mM, c(ATP) 5.0 mM) was 0.05375 mM/min and 0.05359 mM/min and 0.05506 mM/min and the initial velocity vo (c(mupirocin) 0.5 mM, c(ATP) 10.0 mM) was 0.07349 mM/min and 0.07632 mM/min and 0.07609 mM/min. The initial velocity vo (c(mupirocin) 0.5 mM, c(ATP) 20.0 mM) was 0.09482 mM/min and 0.09569 mM/min and 0.09403 mM/min, the initial velocity vo (c(mupirocin) 0.5 mM, c(Ile) 50.0 μM) was 0.00742 mM/min and 0.00851 mM/min and 0.00786 mM/min and the initial velocity vo (c(mupirocin) 1.0 mM, c(ATP) 0.5 mM) was 0.00716 mM/min and 0.0055 mM/min and 0.00625 mM/min. The initial velocity vo (c(mupirocin) 1.0 mM, c(ATP) 1.0 mM) was 0.01194 mM/min and 0.01202 mM/min and 0.01221 mM/min, the initial velocity vo (c(mupirocin) 1.0 mM, c(ATP) 2.5 mM) was 0.0252 mM/min and 0.02429 mM/min and 0.02403 mM/min and the initial velocity vo (c(mupirocin) 1.0 mM, c(ATP) 5.0 mM) was 0.04205 mM/min and 0.0434 mM/min and 0.0426 mM/min. For the same molecule, the initial velocity vo (c(mupirocin) 1.0 mM, c(ATP) 10.0 mM) was 0.06359 mM/min and 0.06579 mM/min and 0.06457 mM/min, the initial velocity vo (c(mupirocin) 1.0 mM, c(ATP) 20.0 mM) was 0.08534 mM/min and 0.08763 mM/min and 0.08559 mM/min and the initial velocity vo (c(mupirocin) 1.0 mM, c(Ile) 50.0 μM) was 0.00713 mM/min and 0.00706 mM/min and 0.00704 mM/min. The initial velocity vo (c(mupirocin) 2.5 mM, c(ATP) 1.0 mM) was 0.00558 mM/min and 0.0055 mM/min and 0.00551 mM/min, the initial velocity vo (c(mupirocin) 2.5 mM, c(ATP) 2.5 mM) was 0.01306 mM/min and 0.01742 mM/min and 0.01281 mM/min and the initial velocity vo (c(mupirocin) 2.5 mM, c(ATP) 5.0 mM) was 0.02499 mM/min and 0.026 mM/min and 0.02496 mM/min. For the same molecule, the initial velocity vo (c(mupirocin) 2.5 mM, c(ATP) 10.0 mM) was 0.04221 mM/min and 0.04045 mM/min and 0.04296 mM/min, the initial velocity vo (c(mupirocin) 2.5 mM, c(ATP) 20.0 mM) was 0.05896 mM/min and 0.06416 mM/min and 0.05964 mM/min and the initial velocity vo (c(mupirocin) 2.5 mM, c(Ile) 50.0 μM) was 0.00279 mM/min and 0.00348 mM/min and 0.00209 mM/min. For the same molecule, the initial velocity vo (c(mupirocin) 5.0 mM, c(ATP) 0.5 mM) was 0.00206 mM/min and 0.00219 mM/min and 0.0025 mM/min, the initial velocity vo (c(mupirocin) 5.0 mM, c(ATP) 1.0 mM) was 0.00362 mM/min and 0.00342 mM/min and 0.00337 mM/min and the initial velocity vo (c(mupirocin) 5.0 mM, c(ATP) 2.5 mM) was 0.00795 mM/min and 0.00842 mM/min and 0.00825 mM/min. The initial velocity vo (c(mupirocin) 5.0 mM, c(ATP) 5.0 mM) was 0.01509 mM/min and 0.0154 mM/min and 0.01576 mM/min, the initial velocity vo (c(mupirocin) 5.0 mM, c(ATP) 10.0 mM) was 0.02771 mM/min and 0.02665 mM/min and 0.0265 mM/min and the initial velocity vo (c(mupirocin) 5.0 mM, c(ATP) 20.0 mM) was 0.04308 mM/min and 0.04226 mM/min. For the same molecule, the initial velocity vo (c(mupirocin) 5.0 mM, c(Ile) 50.0 μM) was 0.00223 mM/min and 0.00239 mM/min and 0.00197 mM/min and the initial velocity vo (c(mupirocin) 10.0 mM, c(Ile) 50.0 μM) was 0.00094 mM/min and 0.00075 mM/min and 0.00127 mM/min.
